Assay results as given in the NIST ThermoML archive (doi:10.1021/je1002829).
± gives the expanded uncertainty stated by the source.

Experiment: xn = mol fraction of the nth substance listed
Conditions: for mass density: 101 kPa, Liquid, Pycnometric method

CCCC(=O)O [butanoic acid] + O
Conditions	mass density, 293.15 K [kg/m3]	mass density, 298.15 K [kg/m3]	mass density, 303.15 K [kg/m3]	mass density, 308.15 K [kg/m3]	surface tension liquid-gas, 293.15 K [mN/m]	surface tension liquid-gas, 298.15 K [mN/m]	surface tension liquid-gas, 303.15 K [mN/m]	surface tension liquid-gas, 308.15 K [mN/m]
x1 = 0.00475	–	–	–	–	50.5 ± 1.1	50.01 ± 1.1	49.13 ± 1.1	48.56 ± 1.1
x1 = 0.00655	–	–	–	–	45.88 ± 1	45.32 ± 1	44.7 ± 1	44.05 ± 1
x1 = 0.00903	–	–	–	–	41.59 ± 0.98	40.95 ± 0.97	40.38 ± 0.97	39.72 ± 0.96
x1 = 0.00998	–	–	–	–	40.32 ± 0.97	39.69 ± 0.96	39.11 ± 0.95	38.47 ± 0.94
x1 = 0.01274	–	–	–	–	37.41 ± 0.92	36.84 ± 0.92	36.24 ± 0.91	35.68 ± 0.9
x1 = 0.01432	–	–	–	–	36.11 ± 0.91	35.6 ± 0.9	34.99 ± 0.89	34.5 ± 0.88
x1 = 0.01655	1002.55 ± 0.42	1000.29 ± 0.45	998.03 ± 0.46	995.86 ± 0.46	34.6 ± 0.88	34.16 ± 0.88	33.58 ± 0.87	33.16 ± 0.86
x1 = 0.02141	1003.38 ± 0.43	1001.03 ± 0.46	998.67 ± 0.47	996.41 ± 0.48	–	–	–	–
x1 = 0.03346	1004.38 ± 0.45	1001.93 ± 0.47	999.47 ± 0.48	997.11 ± 0.5	29.28 ± 0.81	28.91 ± 0.81	28.59 ± 0.8	28.45 ± 0.8
x1 = 0.03727	1004.49 ± 0.46	1001.94 ± 0.48	999.38 ± 0.49	996.93 ± 0.49	–	–	–	–
x1 = 0.04522	1004.3 ± 0.48	1001.66 ± 0.49	999.01 ± 0.5	996.46 ± 0.51	28.48 ± 0.8	28.33 ± 0.8	28.14 ± 0.79	27.95 ± 0.79
x1 = 0.04995	1004.13 ± 0.49	1001.39 ± 0.5	998.64 ± 0.51	995.99 ± 0.51	–	–	–	–
x1 = 0.05825	1003.61 ± 0.5	1000.77 ± 0.51	997.92 ± 0.52	995.18 ± 0.52	28.46 ± 0.8	28.38 ± 0.8	28.1 ± 0.79	27.87 ± 0.79
x1 = 0.06959	1002.83 ± 0.52	999.9 ± 0.52	996.96 ± 0.53	994.11 ± 0.56	–	–	–	–
x1 = 0.07723	1002.34 ± 0.55	999.13 ± 0.56	995.79 ± 0.56	992.85 ± 0.51	–	–	–	–
x1 = 0.08723	–	–	–	–	28.61 ± 0.8	28.3 ± 0.8	27.92 ± 0.79	27.72 ± 0.79
x1 = 0.09004	1001.61 ± 0.54	998.48 ± 0.55	995.24 ± 0.57	991.96 ± 0.57	–	–	–	–
x1 = 0.09948	1001.12 ± 0.55	997.91 ± 0.56	994.7 ± 0.56	991.51 ± 0.58	28.52 ± 0.8	28.24 ± 0.8	27.88 ± 0.79	27.67 ± 0.79
x1 = 0.1147	–	–	–	–	28.39 ± 0.8	28.17 ± 0.79	27.84 ± 0.79	27.63 ± 0.79
x1 = 0.1172	1000.27 ± 0.56	996.95 ± 0.57	993.63 ± 0.57	990.42 ± 0.58	–	–	–	–
x1 = 0.131	999.59 ± 0.57	996.11 ± 0.59	992.63 ± 0.59	989.31 ± 0.58	–	–	–	–
x1 = 0.134	–	–	–	–	28.24 ± 0.8	28.1 ± 0.79	27.82 ± 0.79	27.58 ± 0.79
x1 = 0.1428	–	–	–	–	28.19 ± 0.8	28.07 ± 0.79	27.81 ± 0.79	27.56 ± 0.79
x1 = 0.1443	998.82 ± 0.59	995.31 ± 0.59	991.8 ± 0.6	988.32 ± 0.59	–	–	–	–
x1 = 0.1767	997.16 ± 0.59	993.56 ± 0.6	989.96 ± 0.6	986.45 ± 0.61	28.21 ± 0.8	28.01 ± 0.79	27.79 ± 0.79	27.47 ± 0.79

CCCCC(=O)O [pentanoic acid] + O
Conditions	mass density, 293.15 K [kg/m3]	mass density, 298.15 K [kg/m3]	mass density, 303.15 K [kg/m3]	mass density, 308.15 K [kg/m3]	surface tension liquid-gas, 293.15 K [mN/m]	surface tension liquid-gas, 298.15 K [mN/m]	surface tension liquid-gas, 303.15 K [mN/m]	surface tension liquid-gas, 308.15 K [mN/m]
x1 = 0.00015	998.24 ± 0.34	997.08 ± 0.37	995.67 ± 0.39	994.07 ± 0.41	–	–	–	–
x1 = 0.00016	–	–	–	–	63.92 ± 1.3	64.63 ± 1.3	63.6 ± 1.3	63.01 ± 1.3
x1 = 0.00043	998.28 ± 0.34	997.12 ± 0.37	995.68 ± 0.4	994.07 ± 0.41	–	–	–	–
x1 = 0.00048	–	–	–	–	57.45 ± 1.2	57.4 ± 1.2	56.82 ± 1.2	56.37 ± 1.2
x1 = 0.00056	–	–	–	–	56.19 ± 1.2	56.09 ± 1.2	55.49 ± 1.2	55.07 ± 1.2
x1 = 0.0006	998.31 ± 0.34	997.14 ± 0.37	995.72 ± 0.4	994.09 ± 0.42	–	–	–	–
x1 = 0.00083	–	–	–	–	52.45 ± 1.1	52.12 ± 1.1	51.63 ± 1.1	51.27 ± 1.1
x1 = 0.00099	–	–	–	–	50.54 ± 1.1	50.05 ± 1.1	49.71 ± 1.1	49.38 ± 1.1
x1 = 0.00106	998.36 ± 0.35	997.18 ± 0.37	995.77 ± 0.4	994.1 ± 0.42	–	–	–	–
x1 = 0.00121	–	–	–	–	48.25 ± 1.1	47.66 ± 1.1	47.43 ± 1.1	47.13 ± 1.1
x1 = 0.00143	998.42 ± 0.35	997.22 ± 0.37	995.77 ± 0.4	994.12 ± 0.42	–	–	–	–
x1 = 0.00148	998.43 ± 0.35	997.23 ± 0.37	995.79 ± 0.4	994.12 ± 0.42	–	–	–	–
x1 = 0.0015	–	–	–	–	45.82 ± 1	45.32 ± 1	44.93 ± 1	44.64 ± 1
x1 = 0.00173	–	–	–	–	44.26 ± 1	43.88 ± 1	43.28 ± 1	43 ± 1
x1 = 0.0018	998.47 ± 0.35	997.25 ± 0.37	995.81 ± 0.4	994.13 ± 0.42	–	–	–	–
x1 = 0.00195	998.49 ± 0.35	997.28 ± 0.37	995.82 ± 0.4	994.15 ± 0.42	–	–	–	–
x1 = 0.00196	–	–	–	–	42.94 ± 1	42.57 ± 1	41.86 ± 0.99	41.59 ± 0.98
x1 = 0.00205	998.5 ± 0.35	997.29 ± 0.37	995.83 ± 0.4	994.14 ± 0.42	–	–	–	–
x1 = 0.00219	–	–	–	–	41.78 ± 0.99	41.26 ± 0.98	40.63 ± 0.97	40.36 ± 0.97
x1 = 0.00222	998.52 ± 0.35	997.29 ± 0.37	995.83 ± 0.4	994.16 ± 0.42	–	–	–	–
x1 = 0.00228	998.54 ± 0.35	997.31 ± 0.37	995.84 ± 0.4	994.16 ± 0.42	–	–	–	–
x1 = 0.0025	998.56 ± 0.35	997.33 ± 0.37	995.86 ± 0.4	994.18 ± 0.42	–	–	–	–
x1 = 0.00259	–	–	–	–	39.97 ± 0.96	39.16 ± 0.95	38.8 ± 0.94	38.54 ± 0.94
x1 = 0.00271	998.58 ± 0.35	997.35 ± 0.37	995.88 ± 0.4	994.19 ± 0.42	–	–	–	–
x1 = 0.00283	–	–	–	–	38.97 ± 0.95	38.18 ± 0.94	37.81 ± 0.93	37.57 ± 0.93
x1 = 0.00289	998.62 ± 0.35	997.37 ± 0.37	995.89 ± 0.4	994.19 ± 0.42	–	–	–	–
x1 = 0.00299	–	–	–	–	38.32 ± 0.94	37.6 ± 0.93	37.18 ± 0.92	36.94 ± 0.92
x1 = 0.00305	998.63 ± 0.35	997.4 ± 0.37	995.91 ± 0.4	994.21 ± 0.42	–	–	–	–
x1 = 0.00326	–	–	–	–	37.25 ± 0.92	36.51 ± 0.91	36.1 ± 0.91	35.9 ± 0.9
x1 = 0.00349	–	–	–	–	36.38 ± 0.91	35.61 ± 0.9	35.15 ± 0.89	34.97 ± 0.89
x1 = 0.0035	998.69 ± 0.35	997.43 ± 0.37	995.94 ± 0.4	994.23 ± 0.42	–	–	–	–
